According to ChEMBL document CHEMBL5316313, “Discovery of Novel 3-Phenylpiperidine Derivatives Targeting the β-Catenin/B-Cell Lymphoma 9 Interaction as a Single Agent and in Combination with the Anti-PD-1 Antibody for the Treatment of Colorectal Cancer” (J Med Chem, 2023):

Experiments:
CT26 [1] = assay: Induction of apoptosis in Wnt-dependent mouse CT26 cells assessed as necrotic cells at 10 uM incubated for 24 hrs by Annexin V-Alexa Fluor 647/PI staining based flow cytomtery (Rvb=1.04%); format: functional
HEK293 = assay: Induction of apoptosis in Wnt-independent human HEK293 cells assessed as viable cells at 10 uM incubated for 24 hrs by Annexin V-Alexa Fluor 647/PI staining based flow cytomtery (Rvb=70.5%); format: functional; conditions: read-out: Activity
[2] = Toxicity in BALB/c mouse xenografted with mouse CT26 cells assessed as pathological changes in bone marrow at 30 mg/kg, ip QD in presence of anti-PD-1 antibody cotreatment at 10 mg/kg,ip BIW by hematoxylin and eosin staining based microscopic analysis; format: organism-based; conditions: in vivo
CT26 [3] = assay: Antitumor activity against mouse CT26 cells xenografted in BALB/c mouse assessed as tumor growth inhibition at 10 to 30 mg/kg, ip QD and measured upto 9 days; format: functional, organism-based; conditions: dose 10-30 mg/kg, time <= 9.0 day
Beta catenin-BCL9 = target: T1, Beta catenin-BCL9 (Mus musculus, UniProt Q02248+Q9D219); assay: Inhibition of beta-catenin/BCL9 protein-protein interaction in Wnt-dependent BCL9 knockdown mouse CT26 cells assessed as reduction in Axin2 expression level by qRT-PCR assay; format: cell-based
T1 sequence (Q02248 whole entry): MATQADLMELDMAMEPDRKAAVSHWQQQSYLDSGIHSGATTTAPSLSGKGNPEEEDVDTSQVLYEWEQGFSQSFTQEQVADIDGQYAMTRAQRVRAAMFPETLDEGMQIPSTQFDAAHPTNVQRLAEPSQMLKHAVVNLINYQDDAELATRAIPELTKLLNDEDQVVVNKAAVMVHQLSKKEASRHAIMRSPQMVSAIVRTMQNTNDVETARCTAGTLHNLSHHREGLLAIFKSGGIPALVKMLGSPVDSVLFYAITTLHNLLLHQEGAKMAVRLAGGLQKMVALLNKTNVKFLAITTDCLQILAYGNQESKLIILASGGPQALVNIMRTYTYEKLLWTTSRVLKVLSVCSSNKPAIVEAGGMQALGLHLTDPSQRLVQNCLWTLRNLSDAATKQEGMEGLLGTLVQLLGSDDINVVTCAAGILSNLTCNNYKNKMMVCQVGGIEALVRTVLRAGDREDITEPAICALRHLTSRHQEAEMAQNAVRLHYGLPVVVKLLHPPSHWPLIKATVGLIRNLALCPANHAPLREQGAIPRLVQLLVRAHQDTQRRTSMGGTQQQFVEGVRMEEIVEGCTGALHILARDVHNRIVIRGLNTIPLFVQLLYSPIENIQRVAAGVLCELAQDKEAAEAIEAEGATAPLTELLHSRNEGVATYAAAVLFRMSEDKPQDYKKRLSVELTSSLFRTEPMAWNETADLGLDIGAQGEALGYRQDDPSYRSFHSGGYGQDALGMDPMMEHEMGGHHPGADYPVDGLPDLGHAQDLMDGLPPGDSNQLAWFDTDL
T1 sequence (Q9D219 whole entry): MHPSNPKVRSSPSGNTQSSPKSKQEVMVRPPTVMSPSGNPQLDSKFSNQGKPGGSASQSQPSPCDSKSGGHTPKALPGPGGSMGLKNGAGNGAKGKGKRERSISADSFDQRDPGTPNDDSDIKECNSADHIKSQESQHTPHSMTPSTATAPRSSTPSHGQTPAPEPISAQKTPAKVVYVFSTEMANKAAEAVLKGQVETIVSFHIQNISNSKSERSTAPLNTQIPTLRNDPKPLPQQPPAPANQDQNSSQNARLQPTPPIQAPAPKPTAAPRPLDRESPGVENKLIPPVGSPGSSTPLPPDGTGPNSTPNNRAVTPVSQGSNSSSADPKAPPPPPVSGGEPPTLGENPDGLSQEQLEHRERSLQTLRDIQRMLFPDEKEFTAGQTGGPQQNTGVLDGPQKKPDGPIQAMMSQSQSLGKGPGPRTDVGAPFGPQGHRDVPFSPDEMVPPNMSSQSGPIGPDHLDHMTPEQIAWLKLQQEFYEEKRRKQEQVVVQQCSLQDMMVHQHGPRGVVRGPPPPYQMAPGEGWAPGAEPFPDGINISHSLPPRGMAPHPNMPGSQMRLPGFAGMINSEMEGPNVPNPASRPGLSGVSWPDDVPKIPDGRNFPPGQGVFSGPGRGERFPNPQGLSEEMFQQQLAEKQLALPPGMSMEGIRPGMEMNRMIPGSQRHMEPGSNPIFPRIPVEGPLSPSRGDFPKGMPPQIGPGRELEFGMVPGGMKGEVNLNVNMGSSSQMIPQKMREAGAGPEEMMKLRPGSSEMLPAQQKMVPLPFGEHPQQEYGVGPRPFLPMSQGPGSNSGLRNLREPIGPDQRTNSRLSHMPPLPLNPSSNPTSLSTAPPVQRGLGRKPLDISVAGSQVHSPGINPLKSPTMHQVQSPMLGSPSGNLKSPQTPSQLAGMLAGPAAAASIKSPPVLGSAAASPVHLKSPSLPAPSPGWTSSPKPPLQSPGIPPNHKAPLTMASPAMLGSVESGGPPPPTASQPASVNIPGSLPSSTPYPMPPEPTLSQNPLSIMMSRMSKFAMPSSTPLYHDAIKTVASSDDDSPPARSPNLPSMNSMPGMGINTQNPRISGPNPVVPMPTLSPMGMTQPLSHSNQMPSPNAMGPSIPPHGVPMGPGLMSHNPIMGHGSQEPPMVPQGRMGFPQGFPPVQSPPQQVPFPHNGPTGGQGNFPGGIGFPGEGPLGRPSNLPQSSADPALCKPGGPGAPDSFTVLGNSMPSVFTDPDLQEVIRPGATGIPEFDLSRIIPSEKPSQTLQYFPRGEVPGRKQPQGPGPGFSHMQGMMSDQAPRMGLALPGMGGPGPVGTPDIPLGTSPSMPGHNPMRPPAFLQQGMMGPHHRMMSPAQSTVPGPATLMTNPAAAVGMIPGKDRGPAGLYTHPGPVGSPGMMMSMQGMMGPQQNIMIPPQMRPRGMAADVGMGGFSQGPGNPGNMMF

[4] = Half life in Sprague-Dawley rat at 21 mg/kg, ip and measured upto 24 hrs by LC-MS analysis; format: ADME, organism-based; conditions: in vivo
[5] = Toxicity in BALB/c mouse xenografted with mouse CT26 cells assessed as pathological changes in bone marrow at 30 mg/kg, ip QD by hematoxylin and eosin staining based microscopic analysis; format: organism-based; conditions: in vivo

- IC50 (Beta catenin-BCL9): 51.6 µM
- half-life [4]: 1.15 h
SMILES: CC(C)c1ccc(-c2cccc(S(=O)(=O)N3CCCC(c4cccc(OC(C)(C)C(=O)NS(=O)(=O)c5ccc(C(F)(F)F)cc5)c4)C3)c2)cc1 (configuration not stated)
- Activity (CT26 [1]): 1.91%
- viability at 10 µM (HEK293): 70.8%
- Activity [2]: Non-Toxic
- Activity (CT26 [3]): Dose-Dependent Effect
- Activity [5]: Non-Toxic
